Measured values from US12637413B2, “Fatty acid amide hydrolase (FAAH) cleavable prodrugs of thyromimetics and combination with peripherally restricted FAAH inhibitors” (Autobahn Therapeutics, Inc., priority 2021, dated 2026).
Read-outs that look alike come from different tables or passages of the source.

Tests used:
T3-regulated genes = assay: gene expression in brain and liver after 7 days PO QD dosing; assay type: in vivo, Female C57BL/6 mice; conditions: Mus musculus, PO QD 7 days, 4 or 8 h after last dose
Experimental: (§1) Female C57BL/6 mice (n=5/group), 6-8 weeks old, were acclimated to the study room for at least 3 days before dose administration in the studies. Mice were dosed at 5 mL/kg based on most recent body weight, collected once for the duration of the study. Based on most recent body weight, collected once for the duration of the study, mice were placed into weight-matched treatment dosing cohorts. Mice were given a single administration of PFI or vehicle orally (PO) daily (n=5/group) for 7 days at time=−1 hour. Following the PFI (100 μg/kg) or vehicle dose (10 mL/kg, p.o.), animals were given test article daily at time=0 hour. Test article administration one of eight dose levels (0.1, 0.3, 1, 3, 10, 30, 100 or 300 μg/kg) on Days 1-7 for a total of seven doses. Mice were dosed PO, QD for 7 days with (A) active metabolite or (B) prodrug alone; (C) prodrug+PFI (LL-650177) or (D) prodrug+GFI. […] RNA from samples harvested 4 hours after final dose was quantified using a hybridization-based in situ RNA quantification method (NanoString, Seattle, WA), as described below. RNA from samples harvested 8 hours after final dose was quantified using a hybridization-based in situ RNA quantification method (QuantiGene Plex), as described below. […]

T4 = assay: plasma T4 (ELISA) after 7 days PO QD dosing; assay type: in vivo, Female C57BL/6 mice; conditions: Mus musculus; effects on plasma T4, PO QD 7 days, 4 or 8 h after last dose
Experimental: as §1, with “hour.” for “hour. Test article administration one of eight dose levels (0.1, 0.3, 1, 3, 10, 30, 100 or 300 μg/kg) on Days 1-7 for a total of seven doses. Mice were dosed PO, QD for 7 days with (A) active metabolite or (B) prodrug alone; (C) prodrug+PFI (LL-650177) or (D) prodrug+GFI.”
T4 was measured in terminal plasma samples using an ELISA kit (Biovision, Inc., Thyroxine [T4] [Mouse/Rat] ELISA Kit, Cat #: K7421-100). […] Absorbance was read at 450 nm within 15 min of addition of the Stop Solution using a Varioskan Lux plate reader (ThermoFisher Scientific, Carlsbad, CA). […] Unknown sample concentrations were determined using GraphPad Prism software (GraphPad Prism 9.0.2, GraphPad Software, San Diego, CA). […]

In the case of `CNC(=O)COc1cc(Cl)c(Cc2ccc(O)c(C(C)C)c2)c(Cl)c1` [Compound 1], the ED50 (T3-regulated genes; gene expression in brain, read-out: Brain (ED50 mg/kg)) is reported as 0.044 mg/kg, the ED50 (T3-regulated genes; gene expression in liver, read-out: Liver (ED50 mg/kg)) is reported as 0.0025 mg/kg and the ED50 (T4) is reported as 3.4 µg/kg.
